Several values for one entry are separate records, joined by “and”; a condition that tells them apart may be missing. Equal values may be shown once.
What was measured:
[1] = system: Human pulmonary artery endothelial cells; test: Transendothelial electrical resistance (TER) of human pulmonary artery endothelial cell monolayers; format: cell-based
Protocol: Bovine pulmonary artery endothelial cells were purchased from the American Type Culture Collection (ATCC®, Rockville, Md.) and utilized at passage 19-24. Cells were maintained in Medium 199 (Life Technologies, Rockville, Md.) supplemented with 20% (v/v) colostrum-free bovine serum (CFBS) (Irvine Scientific, Santa Ana, Calif.), 15 μg/ml endothelial cell growth supplement (Upstate Biotechnology, Lake Placid, N.Y.), 1% antibiotic and antimycotic, and 0.1 mM non-essential amino acids (Life Technologies). Human pulmonary artery endothelial cells were purchased from Clonetics (Walkersville, Md.), cultured in EBM-2 complete medium (Clonetics) and utilized at passage 5-10. Human alveolar epithelial cells (A549) were purchased from ATCC® and cultured in the same medium as the bovine endothelial cells, except that the endothelial cell growth supplement was omitted. All cells were maintained at 37° C. in a humidified atmosphere of 5% CO2 and 95% air. Both endothelial cell types grew to contact-inhibited monolayers with the typical cobblestone morphology (Garcia, J. G. N. et al. (1995) J. Cell. Physiol. 163:510-522; Liu, F. et al. (2001) Am. J. Respir. Cell. Mol. Biol. 24:711-719).
Electrical resistance of EC monolayers was measured using electrical cell impedance sensor system (Applied Biophysics Inc., Troy, N.Y.) as described in Garcia, J. G. N. et al. (2000) J. Appl. Physiol. 89:2333-2343. Cells grown on gold microelectrodes (10^−3 cm^2) in polycarbonate wells act as insulating particles, and the resistance across the monolayers (transendothelial electrical resistance, or TER) is measured in real time. As cells adhere on the microelectrode and intercellular cell contacts are formed or in response to agents which increase junctional integrity, the TER increases (Garcia, J. G. N. et al. (2001) J. Clin. Invest. 108:689-711). In contrast, cell retraction, rounding, or loss of adhesion is reflected by decreases in TER (Garcia, J. G. N. et al. (2000) J. Appl. Physiol. 89:2333-2343). These measurements provide a highly sensitive biophysical assay that indicates the state of cell shape, focal adhesion, and endothelial barrier function (Giaever, I. and Keese, C. R. (1993) Nature 366:591-592; Tiruppathi, C. et al. (1992) Proc. Natl. Acad. Sci. USA 89:7919-7923). All electrical resistance data are presented as normalized values. Briefly, current was applied across the electrodes by a 4000 Hz AC voltage source with an amplitude of 1 V in series with a 1 MΩ resistance to approximate a constant current source (−1 μA). The small gold electrode and the larger counter electrode (1 cm^2) were connected to a phase-sensitive lock-in amplifier (5301A; EG&G Instruments Corp, Princeton, N.J.) with a built in differential preamplifier (5316A; EG&G Instruments Corp.). The in-phase and out-of-phase voltages between the electrodes were monitored in real time with the lock-in amplifier and converted to scalar measurements of transendothelial impedance, of which resistance was the primary focus. Transendothelial electrical resistance was monitored for 30 min to establish a baseline resistance (Ro) which, for human lung endothelium, was typically between 8 to 12×10^3 Ω (wells with R0<7×10^3 Ω or R0 >15×10^3 Ω were rejected). For some experiments, total TER was vectorially resolved into components reflecting resistance to current flow beneath the cell layer (α) and resistance to current flow between adjacent cells (Rb) as described in Garcia et al. (2000) supra utilizing the method of Giaiver and Keese which models the endothelial monolayer mathematically (Giaever, I. and Keese, C. R. (1993) Nature 366:591-592). Thus, changes in α reflect alterations in the net state of cell-matrix adhesion, whereas changes in Rb reflect alterations in the integrity of cell-cell adhesion. TER values from each microelectrode were pooled at discrete time points and plotted versus time as the mean±standard error of the mean (Garcia et al. (2000) supra). […]

[2] = system: p38 MAPK; test: p38 MAPK activation by phospho-specific immunoblotting; format: cell-based, human; settings: HGF 20 ng/ml
Protocol: Endothelial cell monolayers grown to confluence in 12-well plates and challenged with HGF were lysed with 100 μl of 2×SDS sample buffer, and cell lysates were transferred into microcentrifuge tubes and boiled for 5 min. After a brief spin, proteins from 10 μl cell lysates were separated on 12% SDS-PAGE and transferred to nitrocellulose (Schleicher & Schuell, Keene, N.H.) (30V, 18 h). After blocking with PBST (PBS with 0.1% Tween 20) containing 5% non-fat milk for 1 hr, nitrocellulose blots were reacted with primary antibodies diluted in PBST containing 5% BSA for 1 hr, washed with PBST (3×10 min), incubated with peroxidase-conjugated secondary antibodies (goat anti-rabbit IgG, 1:10,000 dilution, Sigma; or goat anti-mouse IgG, 1:10,000 dilution, Bio-Rad Labs, Richmond, Calif.) diluted in PBST with 5% non-fat milk for 1 hr and again washed with PBST (3×10 min). Finally, immunoreactive proteins were detected using ECL. The relative intensities of the protein bands were quantified by scanning densitometry.
The MAP family of kinases (ERK1/2 and p38) are actively involved in agonist-induced endothelial cell actin reorganization and barrier regulation (Verin, A. D. et al. (2000) Am. J. Physiol: Lung Cell Molec. Phys. 279:L360-L370, 2000; Garcia, J. G. N. et al. (2001) J. Clin. Invest. 108:689-711) and have been noted to participate in HGF-mediated cell activation (Liang, C. C. and Chen, H. C. (2001) J. Biol. Chem. 276:21146-21152). These reports were confirmed in human endothelial cell monolayers incubated with HGF (20 ng/ml, for 1, 2, 5, 10, 15, 20, 30, 60, or 120 min) where activation of p42/44 ERK and p38 MAPK by HGF was detected by immunoblotting with antibodies that only recognize the phosphorylated (activated) forms of ERK or p38 MAPK. The activation of ERKs was evident at 5 min, maximal after 10-15 min with a gradual decline thereafter, but remaining sustained above basal levels for more than 2 hrs. […] The onset of HGF-mediated activation of p38 MAPK was similar to ERK, with plateau at 10-15 min. […]

HGF: heparin-binding glycoprotein, multifunctional cytokine, ligand of c-Met; purchased from R&D Systems
increase in TER (barrier enhancement) ([1]; HGF 100 ng/ml, at peak): ~50% and > 50% | direct effect on TER ([1]; HGF 2-100 ng/ml, NK2 1-100 ng/ml): increased TER in a dose-dependent manner | time at which elevation in TER is clearly evident ([1]; HGF 2 to 100 ng/ml): 1 to 2 min | further increase in TER above 100 ng/ml ([1]; HGF >100 ng/ml): No further significant increases in TER | time of peak TER increase ([1]; after exposure to 100 ng/ml HGF): 15 to 20 min | TER response to re-stimulation with HGF (10 ng/ml) at 2 hr ([1]; pretreatment with HGF at 10 and 100 ng/mL): significantly reduced the subsequent HGF responses | TER response to re-stimulation with HGF (10 ng/ml) at 2 hr ([1]; prior HGF stimulation at 1 ng/ml): not altered | paracellular junction resistance (Rb) ([1]; vectorial partitioning of TER after HGF treatment): sharp increases | time at which p38 MAPK activation begins to decline [2]: ≤ 20 min | time of plateau of p38 MAPK activation [2]: 10 to 15 min | time of return of p38 MAPK activation to basal value [2]: ≤ 1 h

Source: patent US20050004029A1, “Methods and compositions for treating vascular leak using hepatocyte growth factor” (priority 2001, published 2005)
